# Results reported in publication PMC4448987, “A neuroligin-1-derived peptide stimulates phosphorylation of the NMDA receptor NR1 subunit and rescues MK-801-induced decrease in long-term potentiation and memory impairment” (Pharmacology Research & Perspectives, 2015).
# What was measured:
# [1] = test system: hippocampal neurons; conditions: NX-1β expression-dependent, in contrast to the peptide without the B insert; ref Gjorlund et al. [2012]; cited from earlier work
# Description: (§1) We recently investigated the functional role of the NL1 B insert using a peptide, termed neurolide-1, that encompasses the NL1-binding site for NX1, including the B insert.
# [2] = in vivo intra-hippocampal treatment; ref van der Kooij et al. [2014]; cited from earlier work
# Description: as §1
# [3] = test system: NX-1β; conditions: ref Gjorlund et al. [2012]; cited from earlier work
# Description: as §1
# [4] = test system: adult male Wistar rats; experiment: Social recognition test; assay type: in vivo; conditions: rat
# Method: Social memory in animals reflects the ability to recognize conspecifics as familiar or unfamiliar. The social recognition test was performed basically as described previously (Secher et al. [2006]), (see Data S1). […] Rats were handled 5 days prior to the experiment and habituated to the transparent test cages for 1 h before start of experiment. The tests included three trials (T1–3), separated by intertribal periods of 2 and 24 h, with the test rat being introduced to a 3-week-old juvenile conspecific (40–50 g; Charles River) for 4 min each time. Investigative behavior was recorded and used to calculate recognition ratios (RR) as previously described (Kogan et al. [2000]). Retention periods longer than 1 h are believed to result in no or only minimal retention of social memory (Popik and van Ree [1998]; Secher et al. [2006]). Terminally, rats were rapidly and humanely rendered unconscious by concussive stunning and euthanized by cervical dislocation.
# Social memory in animals reflects the ability of individuals to recognize conspecifics as familiar or unfamiliar. The animals were handled for 5 days prior to the experiments to minimize stress, habituated to the test cage, and trained to interact with a juvenile rat. Two groups of adult rats were used: a control group and a neurolide-1-treated group. Neurolide-1 (10 mg/kg) or vehicle (saline, 1 ml/kg) was injected subcutaneously (s.c.) two times, 24 and 2 h before the experiment. […] In the first trial, a 3-week-old juvenile male rat was introduced to the experimental adult rat for 4 min, and the time spent investigating the juvenile (e.g., licking, sniffing, chewing, and close following) was scored. Two hours later, a second trial was performed by reintroducing the same juvenile to the test rat to for 4 min, and investigative behavior was recorded. From the two trials, a recognition ratio (RR) was calculated as T2 / (T1 + T2), in which T1 and T2 were the times spent investigating the juvenile during the first and second trials, respectively. […]
# [5] = test system: male Wistar rats; experiment: Spatial memory in the Morris water maze; assay type: in vivo; conditions: rat
# Method: The Morris water-maze test (Morris [1984]) was performed as previously described (Kraev et al. [2011]) with slight modifications (see Data S1). Male Wistar rats (Charles River), weighing 150–200 g on the day of arrival were used. To investigate for potential effects on memory consolidation, neurolide-1 was injected immediately after the training sessions on day 1 and 2 (n = 12 in each group). To test for potential effects on memory acquisition neurolide-1 was injected 2 h before start of training on training day 1 and 2 (n = 12 in each group). Finally, to test for potential effects on MK-801-induced learning deficiencies neurolide-1 was injected 2 h before start of training on day 2 and 3 in animals, which had received an injection with MK-801 30 min earlier (n = 6–9 in each group). In a slightly modified version of the MK-801 experiments a group of animals received a neurolide-1 injection immediately after the training sessions on day 1, and then a neurolide-1 injection 2 h before start of training on day 2, preceded by an MK-801 injection 30 min earlier (n = 12 in each group). Terminally, rats were rapidly and humanely rendered unconscious by concussive stunning and euthanized by cervical dislocation.
# The Morris water maze test (Morris, 1984) was conducted in a 160 cm wide circular black tank placed in a dimly lit room and filled with 21°C water up to 20 cm from the top. The tank was surrounded by visual orientation marks, and a 10 cm wide escape platform was placed 1.5 cm below the water level for it to be unseen. A video camera was placed above the tank and connected to a computerized tracking system (Ethovision 3.1, Noldus IT, Wageningen, Holland). The tank was divided into four equal-size quadrants that also served as starting positions. The latency to locate the platform, time spent swimming, and swimming speed were scored within the defined zones (i.e., total area, quadrants, and a platform circle that was 60 cm in diameter with the center in the original platform location). Prior to training, the rats were handled 2 min daily for 5 days to minimize stress during the experiments.
# Reference memory training consisted of three consecutive trials daily for 3 days. Each trial began with placing the animal in the water facing the wall of the pool. The starting position differed for each trial but was identical for all animals. In each trial, the animal was allowed 90 s to locate the platform. […] After each trial, the rats were allowed 20 s of orientation time on the platform and then removed from the pool for 20 s before the next trial was initiated. After the last trial each day, the animals were dried and returned to their home cages.
# To test for effects on long-term memory, the animals were tested in a probe trial 24 h after the last reference memory training. In the probe trial, the platform was removed, and the animals began from a position in a quadrant adjacent to the original platform quadrant. The rats were allowed to swim for 60 s, after which the trial was stopped.
sequence,measurement,setting,value
SEGNRWSNSTKGLFQRA [neurolide-1],neurite outgrowth in hippocampal neurons,[1],induce neurite outgrowth
same,sociability and aggression,[2],did not demonstrate such effects
same,binding to NX-1β,[3],bind NX-1β
same,"long-term social memory, 24 h after the first trial","[4]; 10 mg/kg s.c. 24 and 1 h before first trial, n = 12",did not exhibit an improvement in social memory
same,"short-term social memory (recognition ratio), intertrial interval 2 h","[4]; 10 mg/kg s.c. 24 and 1 h before first trial, same juvenile, n = 12, P < 0.001 vs control",enhanced social memory
same,recognition ratio with a new unfamiliar juvenile in the second trial,"[4]; 10 mg/kg s.c. twice, control test, compared with vehicle group or theoretical value 0.5, n = 12",did not lead to a decrease in the RR
same,"learning, velocity and memory retention in probe test (memory acquisition)","[5]; 10 mg/kg s.c. 2 h before training sessions on days 1 and 2, n = 12",No effect
same,learning on day 2 or 3 and memory retention in probe test (memory consolidation),"[5]; 10 mg/kg s.c. immediately after last training session on days 1 and 2, probe test 24 h after last training, n = 12",No effect
same,velocity in the water maze,"[5]; MK-801 0.1 mg/kg s.c. with or without neurolide-1 10 mg/kg s.c. (long-term regimen), n = 12",Neither treatments affected velocity
same,"effect on MK-801-impaired learning and memory retention, short-term treatment","[5]; neurolide-1 10 mg/kg s.c. 30 min after MK-801 0.1 mg/kg and 2 h before first trial on days 2 and 3, n = 6-9",did not reduce the effect of MK-801
same,effect on MK-801-impaired learning (escape latency),"[5]; neurolide-1 10 mg/kg s.c. after training on day 1 and on day 2, 30 min after MK-801 0.1 mg/kg and 2 h before first training session, n = 12",attenuated the effect of the NMDA receptor inhibitor on learning
same,effect on MK-801-impaired memory in the probe test 24 h after last training session,"[5]; neurolide-1 10 mg/kg s.c. after training on day 1 and on day 2, 30 min after MK-801 0.1 mg/kg, n = 12",completely abrogated the effect of MK-801
